Numbered stars: 1 amine (or outer) side, 2 acyl side, 3 side chain; on linkers, the order of the positions; unused ones are H or OH. Bridge positions count the residues as written; N and C are the ends. Square brackets hold non-standard residues; d marks the D form. Peptide text beside a SMILES is read from it. * marks the point of attachment. ξ: configuration not given here. TBMB(SCH2CH2NH-DOTA) = O=C(O)CN1CCN(CC(=O)O)CCN(CC(=O)NCCSCc2cc(C[*:1])cc(C[*:2])c2)CCN(CC(=O)O)CC1; X3 = NC(=O)[C@H](CCCCNC(=O)CN1CCN(CC(=O)O)CCN(CC(=O)O)CCN(CC(=O)O)CC1)NC(=O)CCC(=O)NCCCOCCOCCOCCCN*; X4 = O=C1CN2CCN3CCN(CC(=O)N4CCN(Cc5cc(C[*:1])cc(C[*:2])c5)CC4)CCN(CC2)CC(=O)[O][In]([O]1)[O]C(=O)C3; X2 = O=C(O)CN1CCN(CC(=O)O)CCN(CC(=O)NCCCOCCOCCOCCCN*)CCN(CC(=O)O)CC1; mXylylene = c1cc(C[*:1])cc(C[*:2])c1; NMeF = CN[C@@H](Cc1ccccc1)C(=O)O; Suc = O=C(CCC(=O)[*:2])[*:1]; 4Amb = NCc1ccc(C(=O)O)cc1; Nle = CCCC[C@H](N)C(=O)O; Hexanoyl = CCCCCC(=O)*; ξD = NC(CC(=O)O)C(=O)O
Experiments:
[1] = molecular target: T1, Human recombinant FAP (Homo sapiens, UniProt Q12884); test: FRET-based FAP protease activity assay; format: biochemical; set-up: purchased R&D systems 3715-SE; settings: pIC50 Category (Activity), recombinant human FAP, FRET substrate, 37° C.
T1 sequence (Q12884 1-760): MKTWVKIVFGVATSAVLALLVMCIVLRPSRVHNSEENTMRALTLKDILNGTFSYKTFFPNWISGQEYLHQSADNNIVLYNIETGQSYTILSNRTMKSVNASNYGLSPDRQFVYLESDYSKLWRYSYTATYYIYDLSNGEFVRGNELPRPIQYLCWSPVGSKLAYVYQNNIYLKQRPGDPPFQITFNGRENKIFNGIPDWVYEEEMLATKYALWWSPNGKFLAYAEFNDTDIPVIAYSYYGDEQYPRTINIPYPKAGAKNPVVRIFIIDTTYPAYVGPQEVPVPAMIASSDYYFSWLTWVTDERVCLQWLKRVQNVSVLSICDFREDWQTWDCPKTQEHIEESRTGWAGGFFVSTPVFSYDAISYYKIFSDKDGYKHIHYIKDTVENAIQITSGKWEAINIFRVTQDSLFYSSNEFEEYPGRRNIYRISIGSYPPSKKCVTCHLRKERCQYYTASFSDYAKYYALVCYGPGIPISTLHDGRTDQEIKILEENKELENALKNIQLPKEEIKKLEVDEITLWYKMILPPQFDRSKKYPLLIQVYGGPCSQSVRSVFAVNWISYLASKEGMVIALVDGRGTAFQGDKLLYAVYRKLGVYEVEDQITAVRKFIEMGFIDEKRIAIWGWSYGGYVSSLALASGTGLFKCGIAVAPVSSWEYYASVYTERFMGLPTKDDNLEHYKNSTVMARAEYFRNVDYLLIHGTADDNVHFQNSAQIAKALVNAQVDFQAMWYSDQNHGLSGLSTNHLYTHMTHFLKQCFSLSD

[2] = Plasma stability assay, mouse plasma; format: in vitro ADME; settings: 37° C., read-out: % intact compound remaining after incubation, Mouse plasma; for remaining at 4 h, 9.8 µM: 4 h incubation; for remaining at 24 h, 9.8 µM: 24 h incubation
[3] = molecular target: T1, Human recombinant FAP; test: Surface plasmon resonance (Biacore) assay; format: binding
[4] = molecular target: T2, FAP-expressing human WI-38 fibroblasts (Homo sapiens, UniProt Q12884); test: Competitive FACS binding assay; settings: pIC50 Category (FACS), competition with 3 nM Cy5-labeled compound, WI-38 fibroblasts, 4° C., 1 hour
T2 construct: FAP-expressing human WI-38 fibroblasts (ECACC) were cultured in EMEM; host or cells: WI-38 human fibroblasts
T2 sequence (Q12884 1-760): T1 sequence (Q12884 1-760)
Procedure: Cells were analyzed in an Attune NxT flow cytometer. […]

[5] = molecular target: T3, recombinant human PREP (Homo sapiens, UniProt P48147); test: PREP protease activity assay; format: biochemical
T3 construct: purchased R&D systems 4308-SE
T3 sequence (P48147 1-710): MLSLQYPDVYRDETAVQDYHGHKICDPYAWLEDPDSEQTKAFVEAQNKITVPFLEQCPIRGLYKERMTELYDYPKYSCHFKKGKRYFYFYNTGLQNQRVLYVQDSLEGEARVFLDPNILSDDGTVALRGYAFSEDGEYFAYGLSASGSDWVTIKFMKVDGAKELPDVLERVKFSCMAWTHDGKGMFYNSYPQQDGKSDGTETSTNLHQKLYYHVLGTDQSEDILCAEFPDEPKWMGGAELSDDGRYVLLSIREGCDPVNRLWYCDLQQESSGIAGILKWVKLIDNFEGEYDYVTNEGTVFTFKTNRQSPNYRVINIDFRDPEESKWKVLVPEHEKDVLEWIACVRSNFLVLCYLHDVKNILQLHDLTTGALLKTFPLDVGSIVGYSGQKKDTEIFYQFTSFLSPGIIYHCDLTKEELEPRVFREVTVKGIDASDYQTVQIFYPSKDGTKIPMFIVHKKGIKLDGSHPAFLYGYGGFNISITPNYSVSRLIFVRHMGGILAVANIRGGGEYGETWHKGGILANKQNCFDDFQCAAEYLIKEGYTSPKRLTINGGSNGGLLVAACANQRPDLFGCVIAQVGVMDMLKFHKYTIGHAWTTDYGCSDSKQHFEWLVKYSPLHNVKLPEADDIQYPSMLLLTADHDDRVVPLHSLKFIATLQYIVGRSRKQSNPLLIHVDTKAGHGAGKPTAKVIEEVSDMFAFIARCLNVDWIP

[6] = molecular target: T4, Recombinant human DPP4 (Homo sapiens, UniProt P27487); test: DPP4 protease activity assay; format: biochemical
T4 construct: purchased R&D systems 9168-SE

[7] = Plasma stability assay, human plasma; format: in vitro ADME; settings: 24 h incubation, 37° C., read-out: % intact compound remaining after incubation, Human plasma
[8] = in vitro; settings: rat, plasma
[9] = molecular target: KV channel; settings: read-out: Ki Ref, reference compound (positive control)

T4 sequence (P27487 whole entry): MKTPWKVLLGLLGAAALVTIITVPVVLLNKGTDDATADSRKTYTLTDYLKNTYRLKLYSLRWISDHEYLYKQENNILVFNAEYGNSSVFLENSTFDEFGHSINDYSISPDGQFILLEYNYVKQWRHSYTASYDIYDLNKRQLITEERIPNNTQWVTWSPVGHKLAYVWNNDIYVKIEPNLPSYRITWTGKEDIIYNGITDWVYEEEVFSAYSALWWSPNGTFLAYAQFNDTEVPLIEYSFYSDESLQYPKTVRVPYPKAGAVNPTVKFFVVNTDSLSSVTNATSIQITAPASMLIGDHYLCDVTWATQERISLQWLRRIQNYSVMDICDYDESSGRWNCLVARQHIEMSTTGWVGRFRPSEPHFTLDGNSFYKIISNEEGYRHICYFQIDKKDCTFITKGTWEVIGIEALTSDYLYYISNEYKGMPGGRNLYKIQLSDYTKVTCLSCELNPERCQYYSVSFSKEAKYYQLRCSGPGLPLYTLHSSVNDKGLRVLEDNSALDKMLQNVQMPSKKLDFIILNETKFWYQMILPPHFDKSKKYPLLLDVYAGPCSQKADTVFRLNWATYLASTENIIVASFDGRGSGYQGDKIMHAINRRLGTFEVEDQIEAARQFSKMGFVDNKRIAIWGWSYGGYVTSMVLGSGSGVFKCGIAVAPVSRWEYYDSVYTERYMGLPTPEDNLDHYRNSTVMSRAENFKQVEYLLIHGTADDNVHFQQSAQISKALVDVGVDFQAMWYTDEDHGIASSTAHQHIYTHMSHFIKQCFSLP

Row | remaining at 4 h, 9.8 µM [2] [%] | IC50 [5] [nM] | IC50 [6] [nM] | Compound | IC50 [1] [nM] | Kd [3] [nM] | IC50 [4] [nM] | remaining at 24 h, 9.8 µM [7] [%] | remaining at 24 h, 9.8 µM [2] [%] | remaining at 24 h, 9.8 µM [8] [%] | Ki [9] [nM]
1 | 94 | > 1000 | > 1000 | CCCCCC(=O)N[C@H]1CSCc2cccc(c2)CSC[C@@H](C(=O)N[C@@H](CC(=O)O)C(=O)N[C@@H](Cc2c[nH]cn2)C(=O)N(C)[C@@H](Cc2ccccc2)C(=O)N[C@@H](CCCNC(=N)N)C(=O)NCCCOCCOCCOCCCNC(=O)CCC(=O)N[C@@H](CCCCNC(=O)CN2CCN(CC(=O)O)CCN(CC(=O)O)CCN(CC(=O)O)CC2)C(N)=O)NC(=O)[C@H](Cc2ccccc2)NC(=O)[C@H](CCC(=O)O)NC(=O)[C@H]([C@@H](C)O)NC(=O)[C@@H]2CCCN2C(=O)[C@@H]2CCCN2C1=O [3BP-3275, Hex-[Cys(3MeBn)-Pro-Pro-Thr-Glu-Phe-Cys]-Asp-His-Nmf-Arg-Ttds-Lys(DOTA)-NH2] (Hexanoyl-CPPTEFCDH[NMeF]R-X3; linker 1-7 via mXylylene) | < 10 | < 10 | < 10 |  |  |  | 
2 | 75 | > 1000 | > 1000 | CCCC[C@H](NC(=O)CCC(=O)NCCCOCCOCCOCCCNC(=O)CN1CCN(CC(=O)O)CCN(CC(=O)O)CCN(CC(=O)O)CC1)C(=O)N[C@H]1CSCc2cccc(c2)CSC[C@@H](C(=O)NC(CC(=O)O)C(N)=O)NC(=O)[C@H](Cc2ccccc2)NC(=O)[C@H](CCC(=O)O)NC(=O)[C@H]([C@@H](C)O)NC(=O)[C@@H]2CCCN2C(=O)[C@@H]2CCCN2C1=O (stereo partly drawn) [3BP-3320, DOTA-Ttds-Nle-[Cys(3MeBn)-Pro-Pro-Thr-Glu-Phe-Cys]-Asp-NH2] ({X2-Suc}-[Nle]CPPTEFC[ξD]-NH2; linker 2-8 via mXylylene) | < 10 | < 10 | 10 to 79.4 |  |  |  | 
3 | 94 | > 1000 | > 1000 | CCCC[C@H](NC(=O)CCC(=O)NCCCOCCOCCOCCCNC(=O)CN1CCN(CC(=O)O)CCN(CC(=O)O)CCN(CC(=O)O)CC1)C(=O)N[C@H]1CSCc2cccc(c2)CSC[C@@H](C(=O)N[C@@H](CC(=O)O)C(=O)NCc2ccc(C(=O)N[C@@H](CCCNC(=N)N)C(N)=O)cc2)NC(=O)[C@H](Cc2ccccc2)NC(=O)[C@H](CCC(=O)O)NC(=O)[C@H]([C@@H](C)O)NC(=O)[C@@H]2CCCN2C(=O)[C@@H]2CCCN2C1=O [3BP-3321, DOTA-Ttds-Nle-[Cys(3MeBn)-Pro-Pro-Thr-Glu-Phe-Cys]-Asp-Pamb-Arg-NH2] ({X2-Suc}-[Nle]CPPTEFCD[4Amb]R-NH2; linker 2-8 via mXylylene) | < 10 | < 10 | < 10 |  |  |  | 
4 |  | > 1000 | > 1000 | CCCC[C@H](NC(=O)CCC(=O)NCCCOCCOCCOCCCNC(=O)CN1CCN(CC(=O)O)CCN(CC(=O)O)CCN(CC(=O)O)CC1)C(=O)N[C@H]1CSCc2cccc(c2)CSC[C@@H](C(=O)NCCC(=O)O)NC(=O)[C@H](Cc2ccccc2)NC(=O)[C@H](CCC(N)=O)NC(=O)[C@H]([C@@H](C)O)NC(=O)[C@@H]2CCCN2C(=O)[C@@H]2CCCN2C1=O [3BP-3398, DOTA-Ttds-Nle-[Cys(3MeBn)-Pro-Pro-Thr-Gln-Phe-Cys]-Bal-OH] | < 10 | < 10 | < 10 | 99 | 94 |  | 
5 |  |  |  | CCCCCC(=O)N[C@H]1CSCc2cc(cc(CN3CCN(C(=O)CN4CCN5CCN6CCN(CC4)CC(=O)[O][In]([O]C(=O)C6)[O]C(=O)C5)CC3)c2)CSC[C@@H](C(=O)N[C@@H](CC(=O)O)C(N)=O)NC(=O)[C@H](Cc2ccccc2)NC(=O)[C@H](CCC(N)=O)NC(=O)[C@H]([C@@H](C)O)NC(=O)[C@@H]2CCCN2C(=O)[C@@H]2CCCN2C1=O [3BP-3590, Indium-Complex of Hex-[Cys(tMeBn(DOTA-PP))-Pro-Pro-Thr-Gln-Phe-Cys]-Asp-NH2] (Hexanoyl-CPPTQFCD-NH2; linker 1-7 via X4) | < 10 | < 10 | < 10 | 94 | 100 | 100 | 
6 |  |  |  | CCCCCC(=O)N[C@H]1CSCc2cc(CSCCNC(=O)CN3CCN4CCN5CCN(CC3)CC(=O)[O][Lu]([O]C(=O)C4)[O]C(=O)C5)cc(c2)CSC[C@@H](C(=O)O)NC(=O)[C@H](Cc2ccccc2)NC(=O)[C@H](CCC(N)=O)NC(=O)[C@H]([C@@H](C)O)NC(=O)[C@@H]2CCCN2C(=O)[C@@H]2CCCN2C1 [3BP-3624, Lutetium-Complex of Hex-[Cys(tMeBn(DOTA-AET))-Pro-Pro-Thr-Gln-Phe-Cys]-OH] | < 10 | < 10 | < 10 | 100 | 100 | 100 | 
7 |  |  |  | alpha-dendrotoxin |  |  |  |  |  |  | 0.097

Row | Compound | remaining at 4 h, 9.8 µM [2] [%] | IC50 [5] [nM] | IC50 [6] [nM] | IC50 [1] [nM] | Kd [3] [nM] | IC50 [4] [nM] | remaining at 24 h, 9.8 µM [7] [%] | remaining at 24 h, 9.8 µM [2] [%] | remaining at 24 h, 9.8 µM [8] [%] | Ki [9] [nM]
8 | CCCC[C@H](NC(=O)CCC(=O)NCCCOCCOCCOCCCNC(=O)CN1CCN(CC(=O)O)CCN(CC(=O)O)CCN(CC(=O)O)CC1)C(=O)N[C@H]1CSCc2cccc(c2)CSC[C@@H](C(N)=O)NC(=O)[C@H](Cc2ccccc2)NC(=O)[C@H](CCC(=O)O)NC(=O)[C@H]([C@@H](C)O)NC(=O)[C@@H]2CCCN2C(=O)[C@@H]2CCCN2C1=O [3BP-3319, DOTA-Ttds-Nle-[Cys(3MeBn)-Pro-Pro-Thr-Glu-Phe-Cys]-NH2] ({X2-Suc}-[Nle]CPPTEFC-NH2; linker 2-8 via mXylylene) | 100 | 631 | > 1000 | 10 to 79.4 | 10 to 79.4 | 10 to 79.4 |  |  |  | 
9 | CCCCCC(=O)N[C@H]1CSCc2cccc(c2)CSC[C@@H](C(=O)N[C@@H](CCCCNC(=O)CN2CCN(CC(=O)O)CCN(CC(=O)O)CCN(CC(=O)O)CC2)CC(=O)O)NC(=O)[C@H](Cc2ccccc2)NC(=O)[C@H](CCC(N)=O)NC(=O)[C@H]([C@@H](C)O)NC(=O)[C@@H]2CCCN2C(=O)[C@@H]2CCCN2C1=O [3BP-3397, Hex-[Cys(3MeBn)-Pro-Pro-Thr-Gln-Phe-Cys]-Bhk(DOTA)-OH] |  | > 1000 | > 1000 | < 10 | < 10 | < 10 | 100 | 92 |  | 
10 | CCCCCC(=O)N[C@H]1CSCc2cc(CSCCNC(=O)CN3CCN(CC(=O)O)CCN(CC(=O)O)CCN(CC(=O)O)CC3)cc(c2)CSC[C@@H](C(=O)N[C@@H](CC(=O)O)C(N)=O)NC(=O)[C@H](Cc2ccccc2)NC(=O)[C@H](CCC(N)=O)NC(=O)[C@H]([C@@H](C)O)NC(=O)[C@@H]2CCCN2C(=O)[C@@H]2CCCN2C1=O [3BP-3426, Hex-[Cys(tMeBn(DOTA-AET))-Pro-Pro-Thr-Gln-Phe-Cys]-Asp-NH2] (Hexanoyl-CPPTQFCD-NH2; linker 1-7 via TBMB(SCH2CH2NH-DOTA)) |  | > 1000 | > 1000 | < 10 | < 10 | < 10 |  | 73 |  | 

Source: US20220315554A1, “COMPOUNDS COMPRISING A […] LIGAND AND USE THEREOF” (priority 2019, published 2022)
